Calls of active or inactive are those of the source. The calls are words filed in the database; no cut-off is given here.
Legend:
[1] = biological target: T1, DNA topoisomerase 1 (Homo sapiens) (UniProt P11387); test: Inhibition of recombinant human topoisomerase 1 assessed as relaxation of supercoiled plasmid pBR322 DNA at 100 uM by agarose gel electrophoresis (reference value: 83.2%)
T1 sequence (whole entry): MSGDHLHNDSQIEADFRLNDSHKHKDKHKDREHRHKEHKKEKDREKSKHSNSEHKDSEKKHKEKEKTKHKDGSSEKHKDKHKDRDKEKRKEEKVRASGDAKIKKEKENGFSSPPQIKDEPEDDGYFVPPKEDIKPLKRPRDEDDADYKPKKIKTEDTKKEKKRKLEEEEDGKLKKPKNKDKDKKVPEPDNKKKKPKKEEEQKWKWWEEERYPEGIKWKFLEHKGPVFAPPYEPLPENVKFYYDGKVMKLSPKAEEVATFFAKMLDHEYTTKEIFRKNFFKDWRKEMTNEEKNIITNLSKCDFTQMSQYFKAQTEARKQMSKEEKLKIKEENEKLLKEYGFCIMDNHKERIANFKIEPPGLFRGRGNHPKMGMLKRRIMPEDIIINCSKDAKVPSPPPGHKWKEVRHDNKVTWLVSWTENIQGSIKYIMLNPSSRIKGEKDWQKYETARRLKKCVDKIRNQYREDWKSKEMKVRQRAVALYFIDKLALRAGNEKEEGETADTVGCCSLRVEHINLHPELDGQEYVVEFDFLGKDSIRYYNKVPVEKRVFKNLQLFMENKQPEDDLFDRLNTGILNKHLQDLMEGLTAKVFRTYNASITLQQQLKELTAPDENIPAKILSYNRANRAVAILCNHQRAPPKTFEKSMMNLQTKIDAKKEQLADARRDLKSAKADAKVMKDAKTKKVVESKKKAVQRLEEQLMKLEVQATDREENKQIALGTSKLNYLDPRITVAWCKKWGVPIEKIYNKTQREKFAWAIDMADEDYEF

[2] = Genotoxicity in human HCT-15 cells assessed as production of Ub1-gamma-H2AX at 2 to 5 uM and measured in presence of 1 nM camptothecin by western blot analysis; format: toxicity, cell-based; settings: hct-15, 5 µM, dose 2-5 µM
[3] = Genotoxicity in human HCT-15 cells assessed as production of Ub1-gamma-H2AX at 2 to 5 uM and measured by western blot analysis; format: toxicity, cell-based; settings: hct-15, 5 µM, dose 2-5 µM
[4] = Toxicity in mouse assessed as reduction in number of absolute neutrophil count at 4 mg/kg in presence of 2 mg/kg etoposide; format: organism-based; settings: in vivo
[5] = Genotoxicity in human HCT-15 cells assessed as production of gamma-H2AX at 2 to 5 uM and measured by western blot analysis; format: toxicity, cell-based; settings: hct-15, 5 µM, dose 2-5 µM
Calf thymus DNA [6] = test: Binding affinity to calf thymus DNA assessed as DNA intercalation at 5 to 40 uM by fluorescence based EtBr-displacement assay; format: nucleic-acid assay; settings: Bos taurus; dose 5-40 µM
[7] = Toxicity in mouse assessed as reduction in number of white blood cells at 4 mg/kg in presence of 2 mg/kg etoposide; format: organism-based; settings: in vivo
HCT-15 [8] = test: Synergistic antiproliferative activity against human HCT-15 cells at 5 uM in presence of 0.2 uM etoposide after 72 hrs by WST-1 assay; format: functional, cell-based
[9] = Toxicity in mouse assessed as reduction in hemoglobin level at 4 mg/kg administered in combination with 2 mg/kg etoposide; format: organism-based; settings: in vivo
[10] = Genotoxicity in human HCT-15 cells assessed as production of fragmented DNA tails at 2 to 5 uM and measured in presence of 1 nM camptothecin by comet assay; format: toxicity, cell-based; settings: hct-15, 5 µM, dose 2-5 µM
[11] = biological target: DNA topoisomerase 2-alpha (Homo sapiens) (UniProt P11388); test: Inhibition of recombinant human topoisomerase 2alpha assessed as relaxation of supercoiled plasmid pBR322 DNA at 100 uM by agarose gel electrophoresis (reference value: 82.2%)
HCT-15 [12] = test: Antitumor activity against human HCT-15 cells xenografted in female BALB/c nude mouse assessed as tumor growth retardation at 4 mg/kg, ip administered every day for 6 days in combination with etoposide at 2 mg/kg, ip administered every day for 6 days; format: functional, organism-based; settings: time 6.0 day
[13] = Toxicity in mouse assessed as reduction in number of white blood cells at 4 mg/kg; format: organism-based; settings: in vivo
[14] = Genotoxicity in human HCT-15 cells assessed as production of fragmented DNA tails at 2 to 5 uM and measured by comet assay; format: toxicity, cell-based; settings: hct-15, 5 µM, dose 2-5 µM
HeLa = test: Antiproliferative activity against human HeLa cells after 72 hrs by EZ-Cytox colorimetric assay; format: functional, cell-based
[15] = Toxicity in mouse assessed as increase in mean corpuscular volume of RBC at 4 mg/kg administered in combination with 2 mg/kg etoposide; format: organism-based, Erythrocyte; settings: in vivo
[16] = Toxicity in mouse assessed as reduction in number of red blood cells at 4 mg/kg administered in combination with 2 mg/kg etoposide; format: organism-based; settings: in vivo
Calf thymus DNA [17] = test: Binding affinity to calf thymus DNA assessed as DNA intercalation by measuring Stem-Volmer quenching constant at 0.01 to 0.1 uM by Hoechst displacement assay; format: nucleic-acid assay; settings: Bos taurus; dose 0.01-0.1 µM
T47D = test: Antiproliferative activity against human T47D cells after 72 hrs by EZ-Cytox colorimetric assay; format: functional, cell-based
[18] = Cytotoxicity against human MRC5 cells after 72 hrs by EZ-Cytox colorimetric assay; format: toxicity, cell-based
[19] = Toxicity in mouse assessed as increase in d red cell distribution width at 4 mg/kg administered in combination with 2 mg/kg etoposide; format: organism-based; settings: in vivo
[20] = Genotoxicity in human HCT-15 cells assessed as production of Ub1-gamma-H2AX at 2 to 5 uM and measured in presence of 0.2 uM etoposide by western blot analysis; format: toxicity, cell-based; settings: hct-15, 5 µM, dose 2-5 µM
[21] = Toxicity in mouse assessed as reduction in number of absolute neutrophil count at 4 mg/kg; format: organism-based; settings: in vivo
[22] = biological target: DNA topoisomerase 2-alpha (Homo sapiens) (UniProt P11388); test: Catalytic inhibitor of non-intercalative topoisomerase 2alpha (unknown origin) assessed as binding to minor groove at 250 to 500 uM measured by cleavage complex assay; settings: dose 250-500 µM
[23] = biological target: T1, DNA topoisomerase 1 (Homo sapiens); test: Catalytic inhibitor of non-intercalative topoisomerase 1 (unknown origin) assessed as binding to minor groove at 100 to 500 uM measured by cleavage complex assay; settings: dose 100-500 µM
DU-145 = test: Antiproliferative activity against human DU-145 cells after 72 hrs by EZ-Cytox colorimetric assay; format: functional, cell-based; settings: DU-145, 72 h
HCT-15 [24] = test: Induction of apoptosis in human HCT-15 cells assessed as change in c-PARP level at 2 to 5 uM in presence of 1 nM camptothecin and measured by Western blot analysis; format: functional, cell-based; settings: dose 2-5 µM
[25] = Cytotoxicity against mouse M2-10B4 cells after 72 hrs by EZ-Cytox colorimetric assay; format: toxicity, cell-based
[26] = Genotoxicity in human HCT-15 cells assessed as production of fragmented DNA tails at 2 to 5 uM and measured in presence of 0.2 uM etoposide by comet assay; format: toxicity, cell-based; settings: hct-15, 5 µM, dose 2-5 µM
[27] = biological target: T1, DNA topoisomerase 1 (Homo sapiens); test: Inhibition of recombinant human topoisomerase 1 assessed as relaxation of supercoiled plasmid pBR322 DNA at 20 uM by agarose gel electrophoresis (reference value: 40.4%)

Chain of DNA topoisomerase 2-alpha (Homo sapiens) (P11388 whole entry): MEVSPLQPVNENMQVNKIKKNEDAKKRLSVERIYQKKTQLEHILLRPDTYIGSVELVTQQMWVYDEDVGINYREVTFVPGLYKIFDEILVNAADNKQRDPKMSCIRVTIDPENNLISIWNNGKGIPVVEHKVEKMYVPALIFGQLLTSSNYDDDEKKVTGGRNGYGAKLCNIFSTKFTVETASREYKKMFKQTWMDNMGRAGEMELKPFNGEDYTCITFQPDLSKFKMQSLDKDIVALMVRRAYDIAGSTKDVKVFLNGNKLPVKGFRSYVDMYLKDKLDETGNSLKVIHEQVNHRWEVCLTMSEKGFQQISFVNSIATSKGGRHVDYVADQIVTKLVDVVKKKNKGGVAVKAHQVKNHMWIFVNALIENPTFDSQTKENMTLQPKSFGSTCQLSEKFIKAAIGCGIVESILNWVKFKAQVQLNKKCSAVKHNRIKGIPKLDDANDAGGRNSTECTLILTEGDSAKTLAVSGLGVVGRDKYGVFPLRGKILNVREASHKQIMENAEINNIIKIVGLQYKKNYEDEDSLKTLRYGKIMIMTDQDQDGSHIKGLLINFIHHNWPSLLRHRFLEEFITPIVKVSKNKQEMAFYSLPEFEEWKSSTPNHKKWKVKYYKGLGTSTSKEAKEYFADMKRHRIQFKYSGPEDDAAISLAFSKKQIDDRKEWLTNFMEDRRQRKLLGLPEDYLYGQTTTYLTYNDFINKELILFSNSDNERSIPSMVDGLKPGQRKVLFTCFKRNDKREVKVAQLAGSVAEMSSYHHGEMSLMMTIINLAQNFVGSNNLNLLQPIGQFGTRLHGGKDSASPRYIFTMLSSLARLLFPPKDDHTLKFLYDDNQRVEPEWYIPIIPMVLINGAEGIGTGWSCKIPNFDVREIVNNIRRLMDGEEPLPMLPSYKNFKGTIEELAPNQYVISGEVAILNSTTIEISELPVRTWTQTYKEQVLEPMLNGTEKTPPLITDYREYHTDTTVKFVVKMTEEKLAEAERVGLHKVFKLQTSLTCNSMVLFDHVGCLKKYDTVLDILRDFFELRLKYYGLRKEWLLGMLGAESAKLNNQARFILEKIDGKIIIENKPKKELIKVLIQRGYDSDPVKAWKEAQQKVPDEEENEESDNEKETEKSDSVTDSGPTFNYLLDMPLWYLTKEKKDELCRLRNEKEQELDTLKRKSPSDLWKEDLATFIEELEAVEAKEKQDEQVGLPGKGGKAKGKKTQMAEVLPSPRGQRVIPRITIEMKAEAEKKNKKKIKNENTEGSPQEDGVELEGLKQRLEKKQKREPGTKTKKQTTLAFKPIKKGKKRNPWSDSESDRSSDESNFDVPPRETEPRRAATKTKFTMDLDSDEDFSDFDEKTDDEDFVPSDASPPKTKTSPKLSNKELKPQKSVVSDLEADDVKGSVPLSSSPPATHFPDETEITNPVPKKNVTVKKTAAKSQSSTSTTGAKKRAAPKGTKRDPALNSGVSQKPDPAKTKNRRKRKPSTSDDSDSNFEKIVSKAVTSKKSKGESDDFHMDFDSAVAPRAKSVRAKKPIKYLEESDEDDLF

For O=C1c2ccccc2-c2nc(-c3ccc(Br)cc3)cc(-c3ccccc3)c21, the inhibition [1] was 87%, the Activity [2] was “Non-Toxic” and the Activity [3] was “Non-Toxic”. For the same compound, the Activity [4] was “Non-Toxic”, the Activity [5] was “Non-Toxic” and the Activity (Calf thymus DNA [6]) was “Active”. For the same compound, the Activity [7] was “Non-Toxic”, the Activity (HCT-15 [8]) was “Active” and the Activity [9] was “Non-Toxic”. The Activity [10] was “Non-Toxic”, the inhibition [11] was 85.8% and the Activity (HCT-15 [12]) was “Active”. The Activity [13] was “Non-Toxic”, the Activity [14] was “Non-Toxic” and the IC50 (HeLa) was > 50 µM. The Activity [15] was “Non-Toxic”, the Activity [16] was “Non-Toxic” and the KSV (Calf thymus DNA [17]) was 2.09 10^6/M. For the same compound, the IC50 (T47D) was 32.7 µM, the IC50 at 72 h [18] was > 10 µM and the Activity [19] was “Non-Toxic”. For the same compound, the Activity [20] was “Non-Toxic”, the Activity [21] was “Non-Toxic” and the inhibition [22] was “Active”. For the same compound, the inhibition [23] was “Active”, the IC50 (DU-145) was 4.84 µM and the Activity (HCT-15 [24]) was “Active”. For the same compound, the IC50 at 72 h [25] was > 10 µM, the Activity [26] was “Non-Toxic” and the inhibition [27] was 1.8%.

Reference: ChEMBL document CHEMBL5143515, “Identification of new halogen-containing 2,4-diphenyl indenopyridin-5-one derivative as a boosting agent for the anticancer responses of clinically available topoisomerase inhibitors” (Eur J Med Chem, 2022)
